In the assay the test system is Helicobacter pylori. Description: Activity against Helicobacter pylori (MIC, Columbia agar (Oxoid), growth period of 4 days). It is filed as cell-based. The note with it: 96 h, methodology of Tomoyuki Iwahi et al. The text has this: The compounds according to the invention were investigated with respect to their activity against Helicobacter pylori following the methodology described by Tomoyuki Iwahi et al. (Antimicrobial Agents and Chemotherapy,1991, 490-496) using Columbia agar (Oxoid) and with a growth period of 4 days.

These results are taken from patent US5824687A, “Pyridinium salts and their use for the control of helicobacter bacteria” (BYK Gulden Lomberg Chemische Fabrik GmbH, priority 1993, dated 1998).

The MIC is the least concentration at which growth counts as inhibited. Low readings indicate a more susceptible organism, high ones a less susceptible organism.

Turning to `Cc1c(C)[n+]2cccc(OCc3ccccc3)c2n1Cc1ccc(F)cc1` [Compound 3, 8-Benzyloxy-1-(4-fluorobenzyl)-2,3-dimethylimidazo-[1,2-a]pyridinium bromide], the MIC was ≤ 10 µg/mL.

Consider `COC(=O)c1ccc(Cn2c(C)c(C)[n+]3cccc(OCc4ccccc4)c23)cc1` [Compound 4, 8-Benzyloxy-1-(4-methoxycarbonylbenzyl)-2,3-dimethylimidazo[1,2-a]pyridinium bromide], for which the MIC is ≤ 10 µg/mL.

For the compound `Cc1c(C)[n+]2cccc(OCc3ccccc3)c2n1CCc1ccccc1` [Compound 5, 8-Benzyloxy-2,3-dimethyl-1-phenethylimidazo[1,2-a]pyridinium bromide], the MIC is ≤ 10 µg/mL.

Regarding `Cc1c(CC#N)[n+]2cccc(OCc3ccccc3)c2n1CCc1ccccc1` [Compound 6, 8-Benzyloxy-3-cyanomethyl-2-methyl-1-phenethylimidazo[1,2-a]pyridinium bromide], the MIC was ≤ 10 µg/mL.

Take `C#CCc1c(C)n(CCc2ccccc2)c2c(OCc3ccccc3)ccc[n+]12` [Compound 7, 8-Benzyloxy-2-methyl-1-phenethyl-3-(2-propynyl)imidazo[1,2-a]pyridiniumbromide]: the MIC was ≤ 10 µg/mL.

As for `Cc1c(C)[n+]2cccc(OCc3ccccc3)c2n1Cc1cc(F)cc(F)c1` [Compound 10, 8-Benzyloxy-1-(3,5-difluorobenzyl)-2,3-dimethylimidazo[1,2-a]pyridiniumbromide], the MIC is ≤ 10 µg/mL.

In the case of `Cc1c(C)[n+]2cccc(OCc3ccccc3)c2n1Cc1ccc2ccccc2c1` [Compound 12, 8-Benzyloxy-2,3-dimethyl-1-(2-naphthylmethyl)imidazo[1,2-a]pyridinium bromide], the MIC was ≤ 10 µg/mL.

As for `Cc1c(C)[n+]2cccc(OCc3ccccc3)c2n1Cc1cccc(C#N)c1` [Compound 13, 8-Benzyloxy-1-(3-cyanobenzyl)-2,3-dimethylimidazo[1,2-a]pyridinium bromide], the MIC was ≤ 10 µg/mL.

For the compound `Cc1c(C)[n+]2cccc(OCc3ccccc3)c2n1Cc1ccc(-c2ccccc2)cc1` [Compound 18, 8-Benzyloxy-1-(4-biphenylmethyl)-2,3-dimethylimidazo[1,2-a]pyridinium bromide], the minimum inhibitory concentration (MIC) is ≤ 10 µg/mL.
